Entries after “also recorded” stand apart in the source; their conditions may differ.
Test system: peroxydation des lipides membranaires (suspensions de mitochondries)
Experiment: Inhibition of membrane lipid peroxidation in beef heart mitochondria (malonaldehyde formation, dihydroxyfumaric acid/iron)
Format: biochemical, boeuf
Excerpt: L'inhibition de la peroxydation lipidique due aux radicaux libres oxygénés, peroxydation particulièrement importante en présence de fer, a été déterminée, in vitro, par la mesure de la quantité d'aldéhyde malonique formée dans des suspensions de mitochondries, mises en présence d'un générateur d'ions superoxydes comme l'acide dihydroxyfumarique.
L'activité inhibitrice de la peroxydation des lipides membranaires des composés a été déterminée comme suit :
a) préparation des mitochondries
On prélève un coeur de boeuf immédiatement après l'abattage de l'animal et le refroidit à 4°C, température à laquelle toutes les opérations suivantes seront effectuées. Le coeur est lavé avec une solution aqueuse tampon à pH 7,4 (TRIS,HCl 10 mM, EDTA 2 mM, KCl 20 mM, saccharose 250 mM) puis les tissus conjonctifs et les graisses sont éliminés. Le muscle est alors haché et le hachis est mis en suspension dans une solution aqueuse tampon à pH 7,4 (TRIS,HCl 10 mM, saccharose 250 mM, EDTA 1 mM) à raison de 700 g de muscle pour 3 litres. Le pH de la suspension est réajusté à 7,4, régulièrement, avant d'isoler le hachis par filtration sur une gaze. […]
Une gamme étalon de malonaldéhyde bis-(diéthylacétal) dilué dans une solution aqueuse de HCl 0,1 N permet de calculer à quelle concentration d'aldéhyde correspond chaque intensité de la fluorescence i. […]

O=c1[nH]c(=O)c2[nH]c(=O)[nH]c2[nH]1 [acide urique]
inhibition de la peroxydation lipidique (result in words): n'inhibe pas; also recorded: inactif
inhibition de la formation de malonaldéhyde (concentration inférieure à 100 »M): n'inhibe pas

Reference: patent publication EP0447324B1, “2,4-Pyrimidinedione derivatives and medicines containing them” (SANOFI, priority 1990, dated 1991)
